Assay results: article PMC9944328 (Nature Communications, 2023)

Test system: SSTR2 mutants
Assay: SSTRs Gi-mediated cAMP inhibition, GloSensor, HEK293, 5 μM forskolin, 15 min room temperature (SSTR2 mutants)
Format: cell-based, human
Description: The levels of the intracellular 3′, 5′-cyclic AMP (cAMP) were measured by the GloSensor cAMP assay (Promega) as described in the previous studies[28],[41] which has been widely used. The human full-length SSTRs and mutants were cloned into the pcDNA3.1+ vector with a HA signal sequence followed by a Flag tag at the N-terminus. HEK293 cells (ATCC, CRL-1573) were seeded into 6-well microplates at a density of 1.0 × 10^6 cells/well and cultured for 24 h at 37 °C with 5% CO2. Cells were then co-transfected with SSTR wild-type or mutants and GloSensor plasmids. After 24 h of transfection, the cells were dissociated with TrypLE™ Express Enzyme (1X) (Thermo Fisher Scientific) and collected by centrifugation at 500 × g for 5 min. Then the collected cells were suspended in Hank’s balanced salt solution [HBSS (Thermo Fisher Scientific)] supplemented with […] (YEASEN), and then the suspension cells were seeded into 96-well plates with 90 μl/well. After incubating at room temperature for 40 min, 5 μM forskolin and ligands diluted in HBSS were added to each well and the plates were incubated at room temperature for 15 min. […] were measured using the Synergy H1 microplate reader (BioTek) and the data presented are means of at least three independent experiments.

[1] = Suppl. Table 4, SSTR2 D295(7.36)F, n=3
[2] = Suppl. Table 4, SSTR2 F294(7.35)Y, n=3
[3] = Suppl. Table 4, SSTR2 I195(45.52)M, n=3
[4] = Suppl. Tables 4/5, SSTR2 V103(2.64)N, n=3

## N#Cc1cccc(-c2ccc3ncc(-c4cc(F)cc(F)c4)c(N4CCC(N)CC4)c3c2)c1O [paltusotine]
P220A-2 (run 2)
  Span (best-fit value): 119.1
  Top (best-fit value): 123.6
P220A-3 (run 3)
  Bottom (best-fit value): 2.569
  LogEC50 (best-fit value): -8.511
  Span (best-fit value): 103.4
  Top (best-fit value): 106
Suppl. Table 4, SSTR2 D295(7.36)F
  Fold of WT: 0.67
[1]
  EC50: 1.39 ± 1.95 nM
  Emax: 75.57±7.43 %WT SSTR2
Suppl. Table 4, SSTR2 F294(7.35)Y
  Fold of WT: 0.48
[2]
  EC50: 0.99 ± 1.3 nM
  Emax: 103.10±3.86 %WT SSTR2
Suppl. Table 4, SSTR2 I195(45.52)M
  Fold of WT: 1.47
[3]
  EC50: 3.05 ± 1.57 nM
  Emax: 89.43±6.05 %WT SSTR2
Suppl. Table 4, SSTR2 Y205(5.35)R
  Fold of WT: 0.16
Suppl. Table 4, SSTR2 Y205(5.35)R, n=3
  EC50: 0.34 nM
Suppl. Tables 4/5, SSTR2 T194(45.51)H
  Fold of WT: 72.45
Suppl. Tables 4/5, SSTR2 T194(45.51)H, n=3
  Emax: 103.80±12.72 %WT SSTR2
Suppl. Tables 4/5, SSTR2 V103(2.64)N
  Fold of WT: 5.75
[4]
  EC50: 12 ± 1.33 nM
  Emax: 99.52±4.73 %WT SSTR2
T194(45.51)H in SSTR2
  Receptor activation of mutant: significantly reduced receptor activation
T194A, run 1, best-fit
  EC50: 54.2 nM
  LogEC50: -7.266
T194A, run 2, best-fit
  EC50: 52.7 nM
  LogEC50: -7.278
T194A, run 3, best-fit
  EC50: 125 nM
  LogEC50: -6.904
T194H, run 1
  Bottom (best-fit): 6.584
  EC50: 123 nM
  LogEC50: -6.909
  Span (best-fit): 95.8
  Top (best-fit): 102.4
T194H, run 2
  Bottom (best-fit): -1.67
  EC50: 151 nM
  LogEC50: -6.822
  Span (best-fit): 105.4
  Top (best-fit): 103.8
T194H, run 3
  Bottom (best-fit): -5.336
  EC50: 125 nM
  LogEC50: -6.902
  Span (best-fit): 128.8
  Top (best-fit): 123.4
V103(2.64)A
  Impact on Gi signaling: less impact on Gi signaling
V103(2.64)N in SSTR2
  Receptor activation of mutant: reduced receptor activation induced by paltusotine
V103N, run 1
  Bottom (best-fit): 8.462
  EC50: 11.7 nM
  LogEC50: -7.932
  Span (best-fit): 90.96
  Top (best-fit): 99.42
V103N, run 2
  Bottom (best-fit): -2.517
  EC50: 36.2 nM
  LogEC50: -7.441
  Span (best-fit): 109.6
  Top (best-fit): 107.1
V103N, run 3
  Bottom (best-fit): -1.625
  EC50: 11.7 nM
  LogEC50: -7.93
  Span (best-fit): 109.5
  Top (best-fit): 107.8
W269A-1 (run 1)
  Bottom (best-fit value): -6.112
  LogEC50 (best-fit value): -9.221
  Span (best-fit value): 105.6
  Top (best-fit value): 99.48
W269A-2 (run 2)
  Bottom (best-fit value): -8.179
  LogEC50 (best-fit value): -9.298
  Span (best-fit value): 111.2
  Top (best-fit value): 103
W269A-3 (run 3)
  Bottom (best-fit value): -4.689
  LogEC50 (best-fit value): -9.219
  Span (best-fit value): 124.8
  Top (best-fit value): 120.1
Y50A, run 1, best-fit
  EC50: 3.61 nM
  LogEC50: -8.443
Y50A, run 2, best-fit
  EC50: 3.74 nM
  LogEC50: -8.427
Y50A, run 3, best-fit
  EC50: 3.4 nM
  LogEC50: -8.469
Y205A-1 (run 1)
  Bottom (best-fit value): 11.16
  LogEC50 (best-fit value): -9.464
  Span (best-fit value): 82.7
  Top (best-fit value): 93.87
Y205A-2 (run 2)
  Bottom (best-fit value): -6.723
  LogEC50 (best-fit value): -9.038
  Span (best-fit value): 105.5
  Top (best-fit value): 98.77
Y205A-3 (run 3)
  Bottom (best-fit value): 0.8743
  LogEC50 (best-fit value): -9.745
  Span (best-fit value): 102.6
  Top (best-fit value): 103.5
Y205R, run 1
  LogEC50: -9.464
  Span (best-fit): 104.7
  Top (best-fit): 106.2
Y205R, run 2
  LogEC50: -9.626
  Span (best-fit): 101.5
  Top (best-fit): 105.3
Y205R, run 3
  LogEC50: -8.061
  Span (best-fit): 97.31
  Top (best-fit): 99.13
Y302A-1 (run 1)
  Bottom (best-fit value), cAMP inhibition: 5.692
